Assay results: US6355238B1, “Specific immune system modulation” (Yale University, priority 1992, dated 2002)

Experiments:
[1] = compared with 8-MOP; Calzavara-Pinton et al. 1992; cited from earlier work
Lysozyme = Lysozyme (Gallus gallus, UniProt P00698); test: Covalent photobinding of 8-MOP to lysozyme (liquid scintillation, [3H]8-MOP); assay type: binding; conditions: lysozyme 0.4 mg/ml, 8-MOP 0.04 mg/ml
Procedure: Lysozyme (0.4 mg/ml) and 8-MOP (0.04 mg/ml) including trace amounts of [3H]8-MOP) were exposed to UVA (3.6 mW/cm^2; filtered with window glass to remove UVB). Aliquots were taken after 15, 30, 60 and 120 min. UVA exposure and were dialyzed exhaustively using distilled water in a microdialyzer (BRL, Bethesda, Md.). An aliquot of each sample was analyzed by liquid scintillation analysis to determine the extent of covalent photobinding of 8-MOP.

Chick ovalbumin = target: T1, Chick ovalbumin (Gallus gallus, UniProt P01012); test: Covalent photobinding of 8-MOP to ovalbumin with visible light; assay type: binding
T1 sequence (P01012 1-386): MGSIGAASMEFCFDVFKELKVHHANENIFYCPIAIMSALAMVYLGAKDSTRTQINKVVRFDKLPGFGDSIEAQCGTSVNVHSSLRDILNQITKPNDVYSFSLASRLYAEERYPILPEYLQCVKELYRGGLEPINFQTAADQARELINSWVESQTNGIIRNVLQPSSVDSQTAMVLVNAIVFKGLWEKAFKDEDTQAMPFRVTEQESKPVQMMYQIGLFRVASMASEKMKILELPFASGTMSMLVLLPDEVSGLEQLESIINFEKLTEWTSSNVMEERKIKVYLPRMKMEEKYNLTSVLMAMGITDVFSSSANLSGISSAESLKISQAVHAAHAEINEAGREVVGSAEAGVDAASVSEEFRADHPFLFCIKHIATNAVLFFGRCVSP
Procedure: Approximately 0.1% photoadducts were observed per amino acid.
Ovalbumin (0.4 mg/ml) and 8-MOP (0.04 mg/ml) containing trace amounts of [^3H]8-MOP) were exposed to visible radiation (419 nm) for 60 min. and thereafter, dialyzed exhaustively using distilled water in a microdialyzer (BRL, Bethesda, Md.). An aliquot of the sample was analyzed by liquid scintillation analysis.

Chain of Lysozyme (P00698 19-147): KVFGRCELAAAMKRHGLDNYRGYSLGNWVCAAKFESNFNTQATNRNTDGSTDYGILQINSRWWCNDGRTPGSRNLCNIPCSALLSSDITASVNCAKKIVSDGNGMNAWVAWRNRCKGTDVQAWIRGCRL

Row | moles 8-MOP/moles Lysozyme (Lysozyme; 0 min UVA exposure) | moles 8-MOP/moles Lysozyme (Lysozyme; 30 min UVA exposure (3.6 mW/cm^2)) | moles 8-MOP/moles Lysozyme (Lysozyme; 60 min UVA exposure (3.6 mW/cm^2)) | moles 8-MOP/moles Lysozyme (Lysozyme; 120 min UVA exposure (3.6 mW/cm^2)) | photoadducts per amino acid (Chick ovalbumin; visible light (419 nm)) | Structure (SMILES) | efficacy in the treatment of psoriasis [1] | extent of covalent photobinding of 8-MOP to ovalbumin (Chick ovalbumin; visible radiation (419 nm) 60 min, ovalbumin 0.4 mg/ml, 8-MOP 0.04 mg/ml)
1 | – | – | – | – | – | COc1c2ccoc2cc2oc(=O)ccc12 [5-MOP, 5-methoxypsoralen] | not as efficacious as 8-MOP | –
2 | 0 moles 8-MOP/moles Lysozyme | 0.90 moles 8-MOP/moles Lysozyme | 2.04 moles 8-MOP/moles Lysozyme | 1.86 moles 8-MOP/moles Lysozyme | Approximately 0.1% | COc1c2occc2cc2ccc(=O)oc12 [8-MOP, 8-methoxypsoralen] | – | approximately 0.039 8-MOP molecules/ovalbumin molecule
